From patent US20240351997A1, “NOVEL PARP7 INHIBITOR AND USE THEREOF” (SHANGHAI QILU PHARMACEUTICAL RESEARCH AND DEVELOPMENT …, priority 2021, published 2024) come the findings set out here.

This experiment concerns the target PARP7 (Homo sapiens (Human), UniProt Q7Z3E1). The experiment in a line: In vitro enzymology experiment of PARP7 (enzymatic inhibition). The experiment is classed as biochemical. The method in brief:
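Histone-coated plate ADP-ribosylation format: compound preincubated 10 min at room temperature with preincubated (25 °C, 10 min) enzyme mixture; incorporated biotin detected by streptavidin-HRP and QuantaRed fluorescence (Ex550/Em620).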

Sequence of PARP7 (Q7Z3E1 whole entry): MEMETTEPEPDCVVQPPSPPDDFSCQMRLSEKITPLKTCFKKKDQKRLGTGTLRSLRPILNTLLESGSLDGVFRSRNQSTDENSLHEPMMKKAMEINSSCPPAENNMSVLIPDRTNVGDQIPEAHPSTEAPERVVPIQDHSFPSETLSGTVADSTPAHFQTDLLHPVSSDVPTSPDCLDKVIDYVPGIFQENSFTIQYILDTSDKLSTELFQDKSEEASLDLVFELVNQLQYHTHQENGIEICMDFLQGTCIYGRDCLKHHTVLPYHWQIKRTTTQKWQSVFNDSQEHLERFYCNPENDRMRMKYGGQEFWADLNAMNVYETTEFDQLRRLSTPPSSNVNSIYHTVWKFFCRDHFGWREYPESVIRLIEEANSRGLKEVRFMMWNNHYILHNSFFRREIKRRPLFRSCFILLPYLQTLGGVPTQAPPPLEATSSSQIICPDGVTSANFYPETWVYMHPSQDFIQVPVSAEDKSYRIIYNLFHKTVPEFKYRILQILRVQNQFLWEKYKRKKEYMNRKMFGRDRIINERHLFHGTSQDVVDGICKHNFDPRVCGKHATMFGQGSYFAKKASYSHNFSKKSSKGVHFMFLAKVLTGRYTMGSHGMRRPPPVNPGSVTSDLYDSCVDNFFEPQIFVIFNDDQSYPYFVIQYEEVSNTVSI

Take `Cc1cnc(N2C[C@H](C)N(C(=O)OCCc3c[nH]c(=O)c(C(F)(F)F)c3)C[C@H]2C)nc1` [Example 166, 2-(6-Oxo-5-(trifluoromethyl)-1,6-dihydropyridin-3-yl)ethyl (2S,5R)-2,5-dimethyl-4-(5-methylpyrimidin-2-yl)piperazine-1-carboxylate]: the IC50 was determined as 0.65 nM.
With `O=C(NCCc1c[nH]c(=O)c(C(F)(F)F)c1)N1CCN(c2ncc(C(F)(F)F)cn2)CC1` [Example 32, N-(2-(6-Oxo-5-(trifluoromethyl)-1,6-dihydropyridin-3-yl)ethyl)-4-(5-(trifluoromethyl)pyrimidin-2-yl)piperazine-1-carboxamide] the figure was 0.44 nM.
As to `C[C@@H](Cc1c[nH]c(=O)c(C(F)(F)F)c1)OC(=O)N1CCN(c2ncc(CO)cn2)CC1` [Example 75, (S)-1-(6-Oxo-5-(trifluoromethyl)-1,6-dihydropyridin-3-yl)propan-2-yl 4-(5-(hydroxymethyl)pyrimidin-2-yl)piperazine-1-carboxylate], the midpoint of inhibition, the IC50, lay at 0.83 nM.
`C[C@@H](Cc1c[nH]c(=O)c(C(F)(F)F)c1)OC(=O)N[C@H]1CCN(c2ncc(C(F)(F)F)cn2)C1` [Example 51, (S)-1-(6-Oxo-5-(trifluoromethyl)-1,6-dihydropyridin-3-yl)propan-2-yl ((S)-1-(5-(trifluoromethyl)pyrimidin-2-yl)pyrrolidin-3-yl)carbamate] came in with an IC50 of 1.34 nM.
With `C[C@H]1CN(c2ncc(C3CC3)cn2)C[C@H](C)N1C(=O)OCCc1c[nH]c(=O)c(C(F)(F)F)c1` [Example 182, 2-(6-Oxo-5-(trifluoromethyl)-1,6-dihydropyridin-3-yl)ethyl (2S,6S)-4-(5-cyclopropylpyrimidin-2-yl)-2,6-dimethylpiperazine-1-carboxylate] the figure was 5.5 nM.
With `CC[C@H]1CN(C(=O)OCCc2c[nH]c(=O)c(C(F)(F)F)c2)CCN1c1ncc(C(F)(F)F)cn1` [Example 124, 2-(6-Oxo-5-(trifluoromethyl)-1,6-dihydropyridin-3-yl)ethyl (S)-3-ethyl-4-(5-(trifluoromethyl)pyrimidin-2-yl)piperazine-1-carboxylate] the figure was 0.48 nM; with `Cc1cc(CC(C)OC(=O)N2CCN(c3ncc(C(F)(F)F)cn3)CC2)c[nH]c1=O` (centres unmarked) [Example 67, 1-(5-Methyl-6-oxo-1,6-dihydropyridin-3-yl)propan-2-yl 4-(5-(trifluoromethyl)pyrimidin-2-yl)piperazine-1-carboxylate], 0.76 nM.
With `O=C(OCCc1c[nH]c(=O)c(C(F)(F)F)c1)N1CCN(c2cnc(C(F)(F)F)cn2)CC1` [Example 127, 2-(6-Oxo-5-(trifluoromethyl)-1,6-dihydropyridin-3-yl)ethyl 4-(5-(trifluoromethyl)pyrazin-2-yl)piperazine-1-carboxylate] the figure was 0.49 nM.
`C[C@H](COC(=O)N1CCN(c2ncc(C(F)(F)F)cn2)CC1)c1c[nH]c(=O)c(C(F)(F)F)c1` [Example 26] returned an IC50 of 0.6 nM.
On to `O=C(Cc1cccc(-c2c[nH]c(=O)c(C(F)(F)F)c2)c1)N1CCN(c2ncc(C(F)(F)F)cn2)CC1` [Example 96, 5-(3-(2-Oxo-2-(4-(5-(trifluoromethyl)pyrimidin-2-yl)piperazin-1-yl)ethyl)phenyl)-3-(trifluoromethyl)pyridin-2(1H)-one], for which the 50% inhibitory concentration (IC50) was found to be 1.03 nM.
With `C[C@@H](Cc1c[nH]c(=O)c(C(F)(F)F)c1)OC(=O)N1[C@@H](C)CN(c2ncc(C(F)(F)F)cn2)C[C@@H]1C` [Example 159, (S)-1-(6-Oxo-5-(trifluoromethyl)-1,6-dihydropyridin-3-yl)propan-2-yl (2S,6S)-2,6-dimethyl-4-(5-(trifluoromethyl)pyrimidin-2-yl)piperazine-1-carboxylate] the figure was 0.9 nM; with `Cc1cnc(N2C[C@@H](C)N(C(=O)OCCc3c[nH]c(=O)c(C(F)(F)F)c3)C[C@@H]2C)nc1` [Example 168, 2-(6-Oxo-5-(trifluoromethyl)-1,6-dihydropyridin-3-yl)ethyl (2R,5S)-2,5-dimethyl-4-(5-methylpyrimidin-2-yl)piperazine-1-carboxylate], 0.9 nM.
With `CNC(=O)c1cnc(N2CCN(C(=O)O[C@@H](C)Cc3c[nH]c(=O)c(C(F)(F)F)c3)CC2)nc1` [Example 87, (S)-1-(6-Oxo-5-(trifluoromethyl)-1,6-dihydropyridin-3-yl)propan-2-yl 4-(5-(methylcarbamoyl)pyrimidin-2-yl)piperazine-1-carboxylate], the IC50 came out at 0.5 nM.
With `O=C(OCCc1c[nH]c(=O)c(C(F)(F)F)c1)N1CCN(c2ncc(C(F)(F)F)cn2)C[C@@H]1CO` [Example 107, 2-(6-Oxo-5-(trifluoromethyl)-1,6-dihydropyridin-3-yl)ethyl (R)-2-(hydroxymethyl)-4-(5-(trifluoromethyl)pyrimidin-2-yl)piperazine-1-carboxylate] the figure was 0.72 nM; with `O=C(Oc1ccnc(-c2c[nH]c(=O)c(C(F)(F)F)c2)c1)N1CCN(c2ncc(C(F)(F)F)cn2)CC1` [Example 137, 6′-Oxo-5′-(trifluoromethyl)-1′,6′-dihydro-[2,3′-bipyridin]-4-yl 4-(5-(trifluoromethyl)pyrimidin-2-yl)piperazine-1-carboxylate], 2.4 nM.
With `Cc1cc(Cc2c[nH]c(=O)c(C(F)(F)F)c2)cc(C(=O)N2CCN(c3ncc(C(F)(F)F)cn3)CC2)c1` [Example 61, 5-(3-Methyl-5-(4-(5-(trifluoromethyl)pyrimidin-2-yl)piperazine-1-carbonyl)benzyl)-3-(trifluoromethyl)pyridin-2(1H)-one] the figure was 0.72 nM; with `O=C(CO[C@H]1CCC[C@@H]1c1c[nH]c(=O)c(C(F)(F)F)c1)N1CCN(c2ncc(C(F)(F)F)cn2)CC1` [Example 57, 5-((1R,2S)-2-(2-Oxo-2-(4-(5-(trifluoromethyl)pyrimidin-2-yl)piperazin-1-yl)ethoxy)cyclopentyl)-3-(trifluoromethyl)pyridin-2(1H)-one], 0.74 nM; with `CC(Cc1c[nH]c(=O)c(C(F)(F)F)c1)OC(=O)N1CCN(c2ncc(Br)cn2)CC1` (centres unmarked) [Example 63, 1-(6-Oxo-5-(trifluoromethyl)-1,6-dihydropyridin-3-yl)propan-2-yl 4-(5-bromopyrimidin-2-yl)piperazine-1-carboxylate], 3.12 nM.
With `O=C(c1ccc(F)c(Cc2c[nH]c(=O)c(C(F)(F)F)c2)c1)N1CCN(c2ncc(C(F)(F)F)cn2)CC1` [Example 68, 5-(2-Fluoro-5-(4-(5-(trifluoromethyl)pyrimidin-2-yl)piperazine-1-carbonyl)benzyl)-3-(trifluoromethyl)pyridin-2(1H)-one] the figure was 1.11 nM; with `O=C(Cc1cc(C(F)(F)F)c(=O)[nH]n1)NCC(=O)N1CCN(c2ncc(C(F)(F)F)cn2)CC1` [Example 5, N-(2-Oxo-2-(4-(5-(trifluoromethyl)pyrimidin-2-yl)piperazin-1-yl)ethyl)-2-(6-oxo-5-(trifluoromethyl)-1,6-dihydropyridazin-3-yl)acetamide], 5.83 nM; with `O=C(c1cccc(Cc2c[nH]c(=O)c(C(F)(F)F)c2)c1)N1CCN(c2ncc(C(F)(F)F)cn2)CC1` [Example 30, 3-(Trifluoromethyl)-5-(3-(4-(5-(trifluoromethyl)pyrimidin-2-yl)piperazine-1-carbonyl)benzyl)pyridin-2(1H)-one], 0.9 nM.
With `CC(Cc1c[nH]c(=O)c(C(F)(F)F)c1)OC(=O)N1CCN(c2ncccn2)CC1` (centres unmarked) [Example 42, 1-(6-Oxo-5-(trifluoromethyl)-1,6-dihydropyridin-3-yl)propan-2-yl 4-(pyrimidin-2-yl)piperazine-1-carboxylate], 1.46 nM corresponded to half-maximal inhibition (IC50).
`C[C@@H]1CN(C(=O)O[C@@H](C)Cc2c[nH]c(=O)c(C(F)(F)F)c2)[C@@H](C)CN1c1ncc(C(F)(F)F)cn1` [Example 160, (S)-1-(6-Oxo-5-(trifluoromethyl)-1,6-dihydropyridin-3-yl)propan-2-yl (2S,5R)-2,5-dimethyl-4-(5-(trifluoromethyl)pyrimidin-2-yl)piperazine-1-carboxylate] came in with an IC50 of 1.3 nM.
Molecule `O=C(CCOC[C@@H]1CCCN1c1c[nH]c(=O)c(C(F)(F)F)c1)N1CCN(c2ncc(C(F)(F)F)cn2)CC1` [Example 9, (S)-5-(2-((3-Oxo-3-(4-(5-(trifluoromethyl)pyrimidin-2-yl)piperazin-1-yl)propoxy)methyl)pyrrolidin-1-yl)-3-(trifluoromethyl)pyridin-2(1H)-one] had a half-maximal inhibitory concentration (IC50) of 7.6 nM.
The molecule `C[C@@H]1CN(c2ncc(C(F)(F)F)cn2)[C@@H](C)CN1C(=O)O[C@@H](C)Cc1c[nH]c(=O)c(C(F)(F)F)c1` [Example 155, (S)-1-(6-Oxo-5-(trifluoromethyl)-1,6-dihydropyridin-3-yl)propan-2-yl (2R,5S)-2,5-dimethyl-4-(5-(trifluoromethyl)pyrimidin-2-yl)piperazine-1-carboxylate] displayed an IC50 of 0.59 nM.
With `CC(Cc1c[nH]c(=O)c(C(F)(F)F)c1)OC(=O)N1CCN(c2ccc(C#N)cn2)CC1` (centres unmarked) [Example 64, 1-(6-Oxo-5-(trifluoromethyl)-1,6-dihydropyridin-3-yl)propan-2-yl 4-(5-cyanopyridin-2-yl)piperazine-1-carboxylate] the figure was 1.99 nM; with `O=C(CCOCCN1CCCc2c1cn[nH]c2=O)N1CCN(c2ncc(C(F)(F)F)cn2)CC1` [Example 13, 1-(2-(3-Oxo-3-(4-(5-(trifluoromethyl)pyrimidin-2-yl)piperazin-1-yl)propoxy)ethyl)-2,3,4,6-tetrahydropyrido[2,3-d]pyridazin-5(1H)-one], 5.98 nM; with `O=C(OCC1(c2c[nH]c(=O)c(C(F)(F)F)c2)CC1)N1CCN(c2ncc(C(F)(F)F)cn2)CC1` [Example 41, (1-(6-Oxo-5-(trifluoromethyl)-1,6-dihydropyridin-3-yl)cyclopropyl)methyl 4-(5-(trifluoromethyl)pyrimidin-2-yl)piperazine-1-carboxylate], 1.1 nM.
With `O=C(O[C@@H]1CCC[C@H]1c1c[nH]c(=O)c(C(F)(F)F)c1)N1CCN(c2ncc(C(F)(F)F)cn2)CC1` (single isomer, unassigned) [Example 70] the figure was 0.91 nM.

For orientation: IC50 means the concentration that gives 50% inhibition.
